Data on 11 compounds can be found in publication PMC4522185 (ChemistryOpen, 2015).

Converted amounts (≈) assume the structure as drawn. Where two headings read alike, the source gives them in different places.

Data set [1] in a line: physchem. The note with it: pbs, pH 7.4, aqueous buffer.
Data set [2] is described as follows: physchem. The conditions noted are these: ch3cn+pbs (1+1), pH 7.4.
In data set [3] the target is T1, Mtb 20S open-gate proteasome (Mycobacterium tuberculosis, UniProt P9WHT9). Kind of data set: biochemical.
The target in data set [4] is human 20S proteasome (chymotrypsin-like activity, with PA28 activator) (Homo sapiens, UniProt P28074). Kind of data set: fluorogenic suc-LLVY-AMC cleavage. The data set is classed as biochemical.
Data set [5] in a line: physchem. The note with it: pbs ph 7.4, pH 7.4.
The target of data set [6] is T1, Mtb 20S open-gate proteasome. The data set can be described thus: biochemical. This is another data set of the same source.
The nature of data set [7]: physchem. The note with it: pbs, pH 7.4, aqueous buffer. The source holds these as a separate data set.
Data set [8] in a line: physchem. The conditions noted are these: ch3cn+pbs (1+1), pH 7.4. This is another data set of the same source.
The target in data set [9] is T1, Mtb 20S open-gate proteasome. Kind of data set: biochemical. The source holds these as a separate data set.

human 20S proteasome (chymotrypsin-like activity, with PA28 activator), sequence (P28074 60-263): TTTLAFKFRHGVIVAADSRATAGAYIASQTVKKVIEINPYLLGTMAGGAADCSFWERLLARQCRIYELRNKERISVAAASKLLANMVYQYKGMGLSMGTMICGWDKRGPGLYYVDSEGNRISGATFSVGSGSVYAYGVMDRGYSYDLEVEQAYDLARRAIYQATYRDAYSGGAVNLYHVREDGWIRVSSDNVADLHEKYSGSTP
human 20S proteasome (chymotrypsin-like activity, with PA28 activator), sequence (P25786 whole entry partner): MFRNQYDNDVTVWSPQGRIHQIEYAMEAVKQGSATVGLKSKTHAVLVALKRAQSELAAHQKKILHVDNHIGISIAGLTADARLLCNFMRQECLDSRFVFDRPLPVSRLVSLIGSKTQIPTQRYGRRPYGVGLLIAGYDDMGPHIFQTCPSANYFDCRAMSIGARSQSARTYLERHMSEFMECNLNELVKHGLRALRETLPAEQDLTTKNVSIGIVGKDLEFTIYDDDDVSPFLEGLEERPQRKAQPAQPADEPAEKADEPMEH
T1 sequence (P9WHT9 whole entry): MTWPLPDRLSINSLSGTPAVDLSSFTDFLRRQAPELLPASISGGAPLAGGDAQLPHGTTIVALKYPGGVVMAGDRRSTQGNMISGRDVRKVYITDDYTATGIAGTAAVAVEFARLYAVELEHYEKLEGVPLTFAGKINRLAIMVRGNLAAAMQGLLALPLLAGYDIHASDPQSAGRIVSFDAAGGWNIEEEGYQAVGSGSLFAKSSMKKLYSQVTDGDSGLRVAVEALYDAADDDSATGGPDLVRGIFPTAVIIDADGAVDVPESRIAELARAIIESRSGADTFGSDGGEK
T1 sequence (P9WHU1 whole entry partner): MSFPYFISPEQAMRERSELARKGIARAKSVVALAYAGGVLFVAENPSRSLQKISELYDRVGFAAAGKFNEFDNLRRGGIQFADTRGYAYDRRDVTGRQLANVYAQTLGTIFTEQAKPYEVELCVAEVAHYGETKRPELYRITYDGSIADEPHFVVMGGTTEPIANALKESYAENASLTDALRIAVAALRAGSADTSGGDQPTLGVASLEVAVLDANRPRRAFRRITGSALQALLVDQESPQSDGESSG

As to `O=c1oc(-c2cnccn2)ns1` [compound 2], in [1], the concentration in solution (solubility at 18 h) was 35.1 µM (≈ 6.36 µg/mL). In data set [2], this compound gave a share remaining at 24 h, 50 µM of 3.6%. Besides, the IC50 in data set [3] was determined as 2300 nM.
On the same counts, the results for `COc1cccc(-c2nsc(=O)o2)c1` [compound 3] are 30.9 µM (≈ 6.47 µg/mL), 15.4% and 665 nM.
Regarding `O=c1oc(/C=C/c2ccccc2)ns1` [compound 17, (E)-5-Styryl-1,3,4-oxathiazol-2-one], the IC50 is greater than 100000 nM in [4] and 420 nM in [3]. This compound also yielded a solubility at 18 h in data set [1] of 19.1 µM (≈ 3.92 µg/mL). Also, the amount remaining at 24 h, 50 µM in data set [2] is 38.7%.
For `O=C(c1ccccc1)c1nsc(=O)o1` [compound 19, 5-Benzoyl-1,3,4-oxathiazol-2-one], in that order: 2950 nM, 2250 nM, 5.7 µM (≈ 1.18 µg/mL) and 46.8%.
On the same counts, the results for `O=c1oc(C#Cc2ccccc2)ns1` [compound 20, 5-(Phenylethynyl)-1,3,4-oxathiazol-2-one] are 4200 nM, 1040 nM, 24.9 µM (≈ 5.06 µg/mL) and 89.6%.
With `COc1ccc(/C=C/c2nsc(=O)o2)cc1` [compound 28, (E)-5-(4-Methoxystyryl)-1,3,4-oxathiazol-2-one], the IC50 was 8500 nM in [4] and 1350 nM in data set [6]. The share remaining at 24 h, 50 µM in data set [5] is 1.5%.
As to `O=c1oc(/C=C/c2ccncc2)ns1` [compound 49, (E)-5-(2-(Pyridin-4-yl)vinyl)-1,3,4-oxathiazol-2-one], the figures for the IC50 in data set [4] and in data set [9] were 77000 nM and 2750 nM, respectively. In [7], the solubility at 18 h turned out to be 84.7 µM (≈ 17.5 µg/mL). The fraction remaining at 24 h, 50 µM in data set [8] worked out at 91.6%.
With `COc1ncccc1/C=C/c1nsc(=O)o1` [compound 50, (E)-5-(2-(2-Methoxypyridin-3-yl)vinyl)-1,3,4-oxathiazol-2-one], the IC50 in data set [4] is 29500 nM. The same compound displayed a solubility at 18 h in data set [7] of 2.1 µM (≈ 0.496 µg/mL). The share remaining at 24 h, 50 µM in [8] turned out to be 97.7%.
As for `O=c1oc(/C=C/c2cccs2)ns1` [compound 51, (E)-5-(2-(Thiophen-2-yl)vinyl)-1,3,4-oxathiazol-2-one], the half-inhibitory concentration (IC50) in data set [4] was 18500 nM; in data set [9], 2100 nM. The solubility at 18 h in data set [7] was 22.6 µM (≈ 4.77 µg/mL). This compound also had an amount remaining at 24 h, 50 µM in data set [8] of 97.6%.
On the same counts, the results for `O=c1oc(/C=C/c2ccsc2)ns1` [compound 52, (E)-5-(2-(Thiophen-3-yl)vinyl)-1,3,4-oxathiazol-2-one] are 11300 nM, 1150 nM, 19.7 µM (≈ 4.16 µg/mL) and 99.1%.
For the compound `O=Cc1ccc(/C=C/c2nsc(=O)o2)o1` [compound 53, (E)-5-(2-(2-Oxo-1,3,4-oxathiazol-5-yl)vinyl)furan-2-carbaldehyde], the 50% inhibitory concentration (IC50) in [4] amounted to 3300 nM; in data set [9] it was 735 nM. The solubility at 18 h in data set [7] was determined as 56.1 µM (≈ 12.5 µg/mL). Also, in data set [8], the share remaining at 24 h, 50 µM came out at 88.9%.
